Results on 14 compounds are retold here after US8628771B2, “CA IX-specific inhibitors” (Institute of Virology Slovak Academy of Sciences, priority 2002, dated 2014).

For data set [1], the target named is T1, hCA I (Homo sapiens, UniProt P00915).
T1 construct: made in house; host or cells: Escherichia coli BL21 (DE3)
Put plainly: CA esterase activity assay, isozyme hCA I. Format: biochemical. The conditions noted are these: Table 3; human (cloned) isozymes, esterase assay method; read-out: KI hCA I.

Data set [2] addresses T2, hCA II (Homo sapiens, UniProt P00918).
T2 construct: made in house; host or cells: Escherichia coli BL21 (DE3)
Put plainly: CA esterase activity assay, isozyme hCA II. Format: biochemical.
Protocol: Human CA I and CA II cDNAs were expressed in Escherichia coli strain BL21 (DE3) from the plasmids pACA/hCA I and pACA/hCA II described by Lindskog's group [54].
Non-enzymatic hydrolysis rates were always subtracted from the observed rates. […] Inhibitor and enzyme solutions were preincubated together for 10 min at room temperature prior to assay, in order to allow for the formation of the E-I complex. The inhibition constant KI was determined as described in references [44, 76].

Data set [3] has as its target hCA IX (Homo sapiens, UniProt Q16790). Put plainly: CA CO2 hydrase activity assay, tumor-associated isozyme hCA IX.
Protocol: An SX.18MV-R Applied Photophysics stopped-flow instrument has been used for assaying the CA CO2 hydration activity assays [44]. […] Inhibitor and enzyme solutions were preincubated together for 10 min at room temperature prior to assay, in order to allow for the formation of the E-I complex.
For data set [4], the system named is human red cells. The conditions noted are these: for [sulfonamide] in red blood cells, EI / [sulfonamide] in red blood cells, ES / [sulfonamide] in red blood cells, HPLC: human, 2 mM, pH 7.4.
For data set [5], the target named is T3, bCA IV (Bos taurus, UniProt Q95323).
T3 construct: CA IV was isolated from bovine lung microsomes as described by Maren et al; from tissue; host or cells: bovine lung microsomes
T3 sequence (Q95323 19-284): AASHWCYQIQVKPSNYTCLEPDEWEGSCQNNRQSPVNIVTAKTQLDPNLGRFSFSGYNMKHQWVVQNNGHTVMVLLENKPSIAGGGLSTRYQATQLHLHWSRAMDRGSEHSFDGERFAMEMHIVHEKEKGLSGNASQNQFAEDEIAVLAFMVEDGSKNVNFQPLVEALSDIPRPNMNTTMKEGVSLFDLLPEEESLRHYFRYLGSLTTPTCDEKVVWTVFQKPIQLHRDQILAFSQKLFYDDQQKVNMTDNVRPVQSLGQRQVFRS
Put plainly: CA esterase activity assay, isozyme bCA IV. The note with it: Table 3. Format: biochemical, bovine.

The mark [6] stands for this setting: Table 3, human (cloned) isozymes, esterase assay method, read-out: KI hCA II.
Setting [7] is: read-out: KI hCA IX, Table 3, catalytic domain of the human, cloned isozyme, CO2 hydrase assay method.
The mark [8] stands for this setting: from bovine lung microsomes, esterase assay method, read-out: KI bCA IV.
Setting [9] is: Tables 1 and 3, read-out: KI against CA II.

Structures can show the parent of a compound that is named as a salt. Where two headings read alike, the source gives them in different places.

T1 sequence (P00915 whole entry): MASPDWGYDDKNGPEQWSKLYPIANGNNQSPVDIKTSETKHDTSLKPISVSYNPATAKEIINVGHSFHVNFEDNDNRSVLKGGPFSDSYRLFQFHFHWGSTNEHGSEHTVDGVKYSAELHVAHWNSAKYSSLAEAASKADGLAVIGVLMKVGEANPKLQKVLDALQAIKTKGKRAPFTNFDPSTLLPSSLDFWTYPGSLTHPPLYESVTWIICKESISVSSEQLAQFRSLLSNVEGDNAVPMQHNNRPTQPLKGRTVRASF

For orientation: melting point means the temperature, or range, at which the solid turns liquid. Compound `Cc1cc(C)[n+](-c2ccc(S(=O)(=O)Nc3nnc(S(N)(=O)=O)s3)cc2)c(C)c1` (as salt: perchlorate) [Compound 71, 1-N-[5-Sulfamoyl-1,3,4-thiadiazol-2-yl-(aminosulfonyl-4-phenyl)]-2,4,6-trimethyl-pyridinium perchlorate] displayed a melting point above 300 °C.
On the same count and under the same terms, the value for `Cc1cc(C(C)C)[n+](-c2ccc(S(=O)(=O)Nc3nnc(S(N)(=O)=O)s3)cc2)c(C(C)C)c1` (as salt: perchlorate) [Compound 73, 1-N-[5-Sulfamoyl-1,3,4-thiadiazol-2-yl-(aminosulfonyl-4-phenyl)]-2,6-di-iso-propyl-4-methylpyridinium perchlorate] was 278 to 279 °C.
The same measure, in the same setting: the value for `Cc1cc(-c2ccccc2)cc(C)[n+]1-c1ccc(S(=O)(=O)Nc2nnc(S(N)(=O)=O)s2)cc1` (as salt: perchlorate) [Compound 75, 1-N-[5-Sulfamoyl-1,3,4-thiadiazol-2-yl-(aminosulfonyl-4-phenyl)]-2,6-dimethyl-4-phenylpyridinium perchlorate] was above 300 °C.
Same read-out and setting: the value for `CCc1cc(-c2ccccc2)cc(CC)[n+]1-c1ccc(S(=O)(=O)Nc2nnc(S(N)(=O)=O)s2)cc1` (as salt: perchlorate) [Compound 76, 1-N-[5-Sulfamoyl-1,3,4-thiadiazol-2-yl-(aminosulfonyl-4-phenyl)]-2,6-diethyl-4-phenylpyridinium perchlorate] was 267 to 268 °C; that for `CCCc1cc(-c2ccccc2)cc(CCC)[n+]1-c1ccc(S(=O)(=O)Nc2nnc(S(N)(=O)=O)s2)cc1` (as salt: perchlorate) [Compound 77, 1-N-[5-Sulfamoyl-1,3,4-thiadiazol-2-yl-(aminosulfonyl-4-phenyl)]-2,6-di-n-propyl-4-phenylpyridinium perchlorate] was 235 to 237 °C.
With `CC(C)c1cc(-c2ccccc2)cc(C(C)C)[n+]1-c1ccc(S(=O)(=O)Nc2nnc(S(N)(=O)=O)s2)cc1` (as salt: perchlorate) [Compound 79, 1-N-[5-Sulfamoyl-1,3,4-thiadiazol-2-yl-(aminosulfonyl-4-phenyl)]-2,6-di-isopropyl-4-phenylpyridinium perchlorate], the melting point was in the range of 278 to 279 °C.
The same measure, in the same setting: the value for `Cc1cc(-c2ccccc2)cc(-c2ccccc2)[n+]1-c1ccc(S(=O)(=O)Nc2nnc(S(N)(=O)=O)s2)cc1` (as salt: perchlorate) [Compound 80, 1-N-[5-Sulfamoyl-1,3,4-thiadiazol-2-yl-(aminosulfonyl-4-phenyl)]-2-methyl-4,6-diphenylpyridinium perchlorate] was 298 to 299 °C.
The same measure, in the same setting: the value for `CCc1cc(-c2ccccc2)cc(-c2ccccc2)[n+]1-c1ccc(S(=O)(=O)Nc2nnc(S(N)(=O)=O)s2)cc1` (as salt: perchlorate) [Compound 81, 1-N-[5-Sulfamoyl-1,3,4-thiadiazol-2-yl-(aminosulfonyl-4-phenyl)]-2-ethyl-4,6-diphenylpyridinium perchlorate] was 254 to 255 °C; that for `CCCc1cc(-c2ccccc2)cc(-c2ccccc2)[n+]1-c1ccc(S(=O)(=O)Nc2nnc(S(N)(=O)=O)s2)cc1` (as salt: perchlorate) [Compound 82, 1-N-[5-Sulfamoyl-1,3,4-thiadiazol-2-yl-(aminosulfonyl-4-phenyl)]-2-n-propyl-4,6-diphenylpyridinium perchlorate] was 214 to 215 °C.
One may read the Ki as a measure of affinity in units of concentration, obtained from inhibition or displacement. Regarding `Cc1cc(C)[n+](-c2ccc(S(=O)(=O)Nc3nnc(S(N)(=O)=O)s3)cc2)c(C)c1` [Compound 71, 1-N-[5-Sulfamoyl-1,3,4-thiadiazol-2-yl-(aminosulfonyl-4-phenyl)]-2,4,6-trimethyl-pyridinium perchlorate], the inhibition constant (Ki) in data set [1] was 4 nM; in data set [2] (setting [6]), 0.26 nM; in data set [2] (read-out: KI against CA II) it was 0.2 to 1.61 nM; in data set [3] it was 3 to 9 nM; in data set [3] (setting [7]) it was 3 nM; in data set [5] (setting [8]), 2.1 nM. For the same compound, the “times more effective than benzolamide in inhibiting CA IX” value in data set [3] (ratio of KI values) is given as around 13. Further, in data set [4], the “amount detected within the blood red cells (membrane penetration)” value is recorded as “detected only in very small amounts”. For the same compound, the “[sulfonamide] in red blood cells, EI” value in data set [4] (30 min) is 0.5 µM; in data set [4] (60 min) it was 0.3 µM. Besides, the “[sulfonamide] in red blood cells, ES” value in data set [4] (30 min) and in data set [4] (60 min) was 0.5 µM throughout. The entries for the “[sulfonamide] in red blood cells, HPLC” value in data set [4] (30 min) and in data set [4] (60 min) were 0.3 µM and 0.4 µM, respectively.
For the compound `CCc1cc(-c2ccccc2)cc(CC)[n+]1-c1ccc(S(=O)(=O)Nc2nnc(S(N)(=O)=O)s2)cc1` [Compound 76, 1-N-[5-Sulfamoyl-1,3,4-thiadiazol-2-yl-(aminosulfonyl-4-phenyl)]-2,6-diethyl-4-phenylpyridinium perchlorate], the inhibition constant Ki in data set [1] was 4 nM; in data set [2] (setting [6]), 0.21 nM; in data set [2] (setting [9]), 0.2 to 1.61 nM; in data set [3] it was 3 to 9 nM; in data set [3] (setting [7]) it was 9 nM; in data set [5] (setting [8]) it was 2.3 nM. Further, in data set [4], the “amount detected within the blood red cells (membrane penetration)” value is listed as “detected only in very small amounts”. For the same compound, the entries for the “[sulfonamide] in red blood cells, EI” value in data set [4] (30 min) and in data set [4] (60 min) were 1.0 µM and 1.1 µM, respectively. Moreover, the “[sulfonamide] in red blood cells, ES” value in data set [4] (30 min) turned out to be 1.1 µM; in data set [4] (60 min), 1.2 µM. The “[sulfonamide] in red blood cells, HPLC” value was determined as 1.0 µM in data set [4] (30 min) and 1.1 µM in data set [4] (60 min).
For the compound `NS(=O)(=O)c1nnc(NS(=O)(=O)c2ccc(-[n+]3c(-c4ccccc4)cccc3-c3ccccc3)cc2)s1` [Compound 88, 1-N-[5-Sulfamoyl-1,3,4-thiadiazol-2-yl-(aminosulfonyl-4-phenyl)]-2,6-diphenylpyridinium perchlorate], the Ki is 5 nM in data set [1]; 4.93 nM in data set [2] (setting [6]); 3.13 to 5.96 nM in data set [2] (setting [9]); 12 to 35 nM in data set [3]; 16 nM in data set [3] (setting [7]); 5.4 nM in data set [5] (setting [8]). For the same compound, the Ki in data set [5] (read-out: KI against CA IV) lay within 5.2 to 10.3 nM.
Turning to `Cc1cc(C)[n+](-c2ccc(S(=O)(=O)Nc3nnc(S(N)(=O)=O)s3)cc2)c(C)c1C` [Compound 89, 1-N-[5-Sulfamoyl-1,3,4-thiadiazol-2-yl-(aminosulfonyl-4-phenyl)]-2,3,4,6-tetramethylpyridinium perchlorate], the Ki is 3 nM in data set [1]; 0.3 nM in data set [2] (setting [6]); 3 to 9 nM in data set [3]; 5 nM in data set [3] (setting [7]); 2.4 nM in data set [5] (setting [8]). Besides, in data set [4], the “amount detected within the blood red cells (membrane penetration)” value is given as “detected only in very small amounts”. Moreover, the “[sulfonamide] in red blood cells, EI” value came to 0.5 µM in data set [4] (30 min) and 0.4 µM in data set [4] (60 min). Further, the “[sulfonamide] in red blood cells, ES” value is 0.2 µM in data set [4] (30 min) and 0.6 µM in data set [4] (60 min). Also, the “[sulfonamide] in red blood cells, HPLC” value in data set [4] (30 min) and in data set [4] (60 min) was 0.3 µM throughout.
With `Cc1c(-c2ccccc2)cc(C)[n+](-c2ccc(S(=O)(=O)Nc3nnc(S(N)(=O)=O)s3)cc2)c1C` [Compound 90], the inhibition constant Ki in data set [1] was 3 nM; in data set [2] (setting [6]), 1.24 nM; in data set [3] (KI against CA IX, text discussion of Tables 1-3), 12 to 35 nM; in data set [3] (setting [7]), 15 nM; in data set [5] (setting [8]), 5.2 nM; in data set [5] (read-out: KI against CA IV) it was 5.2 to 10.3 nM.
